# Test results reported in ChEMBL document CHEMBL1201862, “PubChem BioAssay data set” (2004).
# “And” between values parts separate entries of the source, which are not always exact repeats. Equal values may be shown once.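 Cells were grown in 96-well plates and exposed to each compound for 48 hours at five concentrations; endpoints were interpolated linearly between bracketing concentrations, or set to the highest concentration if not reached. GI50: concentration for 50% inhibition of growth.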 The source made the active and inactive calls. Rule as the data show it: active = GI50 up to about 1.1 µM and inactive = higher. Where a SMILES comes first, the peptide text is derived from it. The star is where a group is joined. Cbz = O=C(OCc1ccccc1)*; OBn = c1ccc(CO*)cc1
# Experiments:
# Test in all cases: NCI-60 cell line screen, 48 h
# TK-10 = tested on: TK-10
# EKVX = tested on: EKVX
# M14 = tested on: M14
# OVCAR-3 = tested on: OVCAR-3
# HOP-62 = tested on: HOP-62
# SN12C = tested on: SN12C
# Malme-3M = tested on: Malme-3M
# UACC-62 = tested on: UACC-62
# HCT-116 = tested on: HCT-116
# SK-MEL-2 = tested on: SK-MEL-2
# A498 = tested on: A498
# HCC 2998 = tested on: HCC 2998
# NCI/ADR-RES = tested on: NCI/ADR-RES
# UACC-257 = tested on: UACC-257
# NCI-H23 = tested on: NCI-H23
# PC-3 = tested on: PC-3
# OVCAR-8 = tested on: OVCAR-8
# HCT-15 = tested on: HCT-15
# MCF7 = tested on: MCF7
# SNB-19 = tested on: SNB-19
# HL-60 = tested on: HL-60
# SNB-75 = tested on: SNB-75
# OVCAR-4 = tested on: OVCAR-4
# U-251 = tested on: U-251
# OVCAR-5 = tested on: OVCAR-5
# MDA-MB-231 = tested on: MDA-MB-231
# Hs-578T = tested on: Hs-578T
# SF-268 = tested on: SF-268
# IGROV-1 = tested on: IGROV-1
# DU-145 = tested on: DU-145
# MDA-N = tested on: MDA-N
# BT-549 = tested on: BT-549
# SW-620 = tested on: SW-620
# HT-29 = tested on: HT-29
# SR = tested on: SR
# K562 = tested on: K562
# CCRF-CEM = tested on: CCRF-CEM
# NCI-H226 = tested on: NCI-H226
# T47D = tested on: T47D
# SK-MEL-28 = tested on: SK-MEL-28
# MOLT-4 = tested on: MOLT-4
# SK-MEL-5 = tested on: SK-MEL-5
# ACHN = tested on: ACHN
# UO-31 = tested on: UO-31
# CAKI-1 = tested on: CAKI-1
# NCI-H522 = tested on: NCI-H522
# KM12 = tested on: KM12
# SF-295 = tested on: SF-295
# COLO 205 = tested on: COLO 205
# NCI-H460 = tested on: NCI-H460
# SK-OV-3 = tested on: SK-OV-3
# SF-539 = tested on: SF-539
# A549 = tested on: A549
# RXF 393 = tested on: RXF 393
# 786-0 = tested on: 786-0
# RPMI-8226 = tested on: RPMI-8226
# LOX IMVI = tested on: LOX IMVI
# HOP-92 = tested on: HOP-92
# MDA-MB-435 = tested on: MDA-MB-435
structure (smiles),measurement,setting,value
CCOC(=O)/C(Cl)=C(\C)Nc1nc2c(ccc3ccccc32)s1,GI50,TK-10,> 100 µM (inactive)
same,GI50,EKVX,32.6 µM (inactive)
same,GI50,M14,33.2 µM (inactive)
same,GI50,OVCAR-3,46.8 µM (inactive)
same,GI50,HOP-62,37.9 µM (inactive)
same,GI50,SN12C,47.6 µM (inactive)
same,GI50,Malme-3M,15.6 µM (inactive)
same,GI50,UACC-62,41.9 µM (inactive)
same,GI50,HCT-116,25.5 µM (inactive)
same,GI50,SK-MEL-2,26.6 µM (inactive)
same,GI50,A498,> 100 µM (inactive)
same,GI50,HCC 2998,16.4 µM (inactive)
same,GI50,NCI/ADR-RES,> 100 µM (inactive)
same,GI50,UACC-257,91.8 µM (inactive)
same,GI50,NCI-H23,31.3 µM (inactive)
same,GI50,PC-3,22.5 µM (inactive)
same,GI50,OVCAR-8,60.3 µM (inactive)
same,GI50,HCT-15,26.1 µM
same,GI50,MCF7,24.5 µM (inactive)
same,GI50,SNB-19,> 100 µM (inactive)
same,GI50,HL-60,38.1 µM (inactive)
same,GI50,SNB-75,14.6 µM (inactive)
same,GI50,OVCAR-4,87.7 µM (inactive)
same,GI50,U-251,> 100 µM (inactive)
same,GI50,OVCAR-5,81.1 µM (inactive)
same,GI50,MDA-MB-231,60.5 µM (inactive)
same,GI50,Hs-578T,35 µM (inactive)
same,GI50,SF-268,90.2 µM (inactive)
same,GI50,IGROV-1,> 100 µM (inactive)
same,GI50,DU-145,20.6 µM (inactive)
same,GI50,MDA-N,26.3 µM (inactive)
same,GI50,BT-549,61.7 µM (inactive)
same,GI50,SW-620,36.4 µM (inactive)
same,GI50,HT-29,45.3 µM (inactive)
same,GI50,SR,19.5 µM (inactive)
same,GI50,K562,17.5 µM (inactive)
same,GI50,CCRF-CEM,7.87 µM (inactive)
same,GI50,NCI-H226,24.5 µM (inactive)
same,GI50,T47D,13.6 µM (inactive)
same,GI50,SK-MEL-28,> 100 µM (inactive)
same,GI50,MOLT-4,7.28 µM (inactive)
same,GI50,SK-MEL-5,31.2 µM (inactive)
same,GI50,ACHN,> 100 µM (inactive)
same,GI50,UO-31,> 100 µM (inactive)
same,GI50,CAKI-1,87.9 µM (inactive)
same,GI50,NCI-H522,9.35 µM (inactive)
same,GI50,KM12,30.6 µM (inactive)
same,GI50,SF-295,> 100 µM (inactive)
same,GI50,COLO 205,47.9 µM (inactive)
same,GI50,NCI-H460,22.5 µM (inactive)
same,GI50,SK-OV-3,> 100 µM (inactive)
NC1=CC(C(=O)c2ccncc2)c2nc3ccccc3nc21 (centres undefined),GI50,TK-10,> 100 µM (inactive)
same,GI50,EKVX,> 100 µM (inactive)
same,GI50,M14,> 100 µM (inactive)
same,GI50,OVCAR-3,> 100 µM (inactive)
same,GI50,HOP-62,44.2 µM (inactive)
same,GI50,SF-539,> 100 µM (inactive)
same,GI50,SN12C,> 100 µM (inactive)
same,GI50,Malme-3M,> 100 µM (inactive)
same,GI50,UACC-62,> 100 µM (inactive)
same,GI50,A549,> 100 µM (inactive)
same,GI50,HCT-116,> 100 µM (inactive)
same,GI50,SK-MEL-2,> 100 µM (inactive)
same,GI50,A498,> 100 µM (inactive)
same,GI50,HCC 2998,> 100 µM (inactive)
same,GI50,NCI/ADR-RES,> 100 µM (inactive)
same,GI50,UACC-257,> 100 µM (inactive)
same,GI50,NCI-H23,63 µM (inactive)
same,GI50,PC-3,> 100 µM (inactive)
same,GI50,OVCAR-8,63.5 µM (inactive)
same,GI50,HCT-15,92.7 µM
same,GI50,MCF7,> 100 µM (inactive)
same,GI50,RXF 393,> 100 µM (inactive)
same,GI50,SNB-19,> 100 µM (inactive)
same,GI50,786-0,> 100 µM (inactive)
same,GI50,SNB-75,52 µM (inactive)
same,GI50,OVCAR-4,> 100 µM (inactive)
same,GI50,U-251,> 100 µM (inactive)
same,GI50,OVCAR-5,> 100 µM (inactive)
same,GI50,MDA-MB-231,> 100 µM (inactive)
same,GI50,Hs-578T,57 µM (inactive)
same,GI50,SF-268,> 100 µM (inactive)
same,GI50,RPMI-8226,> 100 µM (inactive)
same,GI50,IGROV-1,46.6 µM (inactive)
same,GI50,DU-145,> 100 µM (inactive)
same,GI50,LOX IMVI,22.7 µM (inactive)
same,GI50,MDA-N,> 100 µM (inactive)
same,GI50,BT-549,> 100 µM (inactive)
same,GI50,SW-620,> 100 µM (inactive)
same,GI50,HOP-92,> 100 µM (inactive)
same,GI50,HT-29,68.5 µM (inactive)
same,GI50,CCRF-CEM,> 100 µM (inactive)
same,GI50,NCI-H226,> 100 µM (inactive)
same,GI50,T47D,> 100 µM (inactive)
same,GI50,SK-MEL-28,> 100 µM (inactive)
same,GI50,MOLT-4,> 100 µM (inactive)
same,GI50,SK-MEL-5,> 100 µM (inactive)
same,GI50,ACHN,59.2 µM (inactive)
same,GI50,UO-31,> 100 µM (inactive)
same,GI50,CAKI-1,42.2 µM (inactive)
same,GI50,NCI-H522,> 100 µM (inactive)
same,GI50,MDA-MB-435,> 100 µM (inactive)
same,GI50,KM12,> 100 µM (inactive)
same,GI50,SF-295,94.4 µM (inactive)
same,GI50,COLO 205,> 100 µM (inactive)
same,GI50,NCI-H460,75.5 µM (inactive)
same,GI50,SK-OV-3,> 100 µM (inactive)
COC(=O)C(Cc1ccc(O)cc1)NC(=O)C(CC(=O)OCc1ccccc1)NC(=O)OCc1ccccc1 (centres undefined) (Cbz-Asp(OBn)-Tyr-OMe; configuration not given here),GI50,TK-10,18.2 µM (inactive)
same,GI50,EKVX,23.8 µM (inactive)
same,GI50,M14,22.2 µM (inactive)
same,GI50,HOP-62,19.7 µM (inactive)
same,GI50,SN12C,21 µM (inactive)
same,GI50,Malme-3M,41.1 µM (inactive)
same,GI50,A549,20.7 µM (inactive)
same,GI50,HCT-116,19.3 µM (inactive)
same,GI50,SK-MEL-2,19.2 µM (inactive)
same,GI50,A498,20.6 µM (inactive)
same,GI50,HCC 2998,17.6 µM (inactive)
same,GI50,UACC-257,21.2 µM (inactive)
same,GI50,NCI-H23,23.6 µM (inactive)
same,GI50,PC-3,17.7 µM (inactive)
same,GI50,OVCAR-8,20.5 µM (inactive)
same,GI50,HCT-15,18.3 µM
same,GI50,MCF7,> 10 µM (inactive)
same,GI50,RXF 393,14 µM (inactive)
same,GI50,SNB-19,18.3 µM (inactive)
same,GI50,786-0,18.2 µM (inactive)
same,GI50,HL-60,25.6 µM (inactive)
same,GI50,SNB-75,17.9 µM (inactive)
same,GI50,U-251,20.3 µM (inactive)
same,GI50,OVCAR-5,22.7 µM (inactive)
same,GI50,MDA-MB-231,18.7 µM (inactive)
same,GI50,Hs-578T,24.9 µM (inactive)
same,GI50,RPMI-8226,24.9 µM (inactive)
same,GI50,IGROV-1,17.3 µM (inactive)
same,GI50,MDA-N,19.4 µM (inactive)
same,GI50,BT-549,22.6 µM (inactive)
same,GI50,SW-620,22.4 µM (inactive)
same,GI50,HOP-92,51.1 µM (inactive)
same,GI50,HT-29,17.1 µM (inactive)
same,GI50,SR,22.8 µM (inactive)
same,GI50,K562,42.5 µM (inactive)
same,GI50,CCRF-CEM,53.2 µM (inactive)
same,GI50,NCI-H226,21.4 µM (inactive)
same,GI50,T47D,19.5 µM (inactive)
same,GI50,SK-MEL-28,17.1 µM (inactive)
same,GI50,MOLT-4,24.7 µM (inactive)
same,GI50,SK-MEL-5,18.2 µM (inactive)
same,GI50,ACHN,20.1 µM (inactive)
same,GI50,UO-31,22.9 µM (inactive)
same,GI50,KM12,22.6 µM (inactive)
same,GI50,COLO 205,19.1 µM (inactive)
same,GI50,NCI-H460,12.4 µM (inactive)
C=CCN1C(=O)/C(=C/c2ccc(Cl)cc2)N=C1SC1OC(COC(C)=O)C(OC(C)=O)C(OC(C)=O)C1OC(C)=O (centres undefined),GI50,TK-10,46.2 µM (inactive) and > 42.6 µM (inactive)
same,GI50,EKVX,24.3 µM (inactive) and 33.4 µM (inactive)
same,GI50,M14,28.1 µM (inactive)
same,GI50,OVCAR-3,11.6 µM (inactive) and 18.5 µM (inactive)
same,GI50,SF-539,33 µM (inactive) and 25.3 µM (inactive)
same,GI50,SN12C,16.5 µM (inactive)
same,GI50,A549,14.4 µM (inactive)
same,GI50,HCT-116,5.02 µM (inactive)
same,GI50,UACC-257,18.9 µM (inactive) and 12.2 µM (inactive)
same,GI50,NCI-H23,20 µM (inactive) and 25.1 µM (inactive)
same,GI50,OVCAR-8,15.7 µM (inactive) and 8.43 µM (inactive)
same,GI50,MCF7,12.7 µM (inactive) and 7.41 µM (inactive)
same,GI50,SNB-19,15.8 µM (inactive)
same,GI50,786-0,3.5 µM (inactive)
same,GI50,Hs-578T,2.54 µM (inactive)
same,GI50,SF-268,1.64 µM (inactive)
same,GI50,IGROV-1,22.4 µM (inactive) and 33 µM (inactive)
same,GI50,DU-145,24 µM (inactive) and 14.6 µM (inactive)
same,GI50,LOX IMVI,22.9 µM (inactive) and 29.9 µM (inactive)
same,GI50,MDA-N,25.8 µM (inactive)
same,GI50,BT-549,31.3 µM (inactive) and 15.7 µM (inactive)
same,GI50,HT-29,35.6 µM (inactive)
same,GI50,CCRF-CEM,37.2 µM (inactive)
same,GI50,T47D,8.51 µM (inactive)
same,GI50,SK-MEL-28,39.4 µM (inactive) and 56.9 µM (inactive)
same,GI50,SK-MEL-5,26.6 µM (inactive) and 15.8 µM (inactive)
same,GI50,CAKI-1,10.9 µM (inactive) and 9.93 µM (inactive)
same,GI50,NCI-H522,2.98 µM (inactive) and 3.81 µM (inactive)
same,GI50,MDA-MB-435,14 µM (inactive) and 13.8 µM (inactive)
same,GI50,KM12,30.2 µM (inactive) and 22.8 µM (inactive)
same,GI50,SK-OV-3,> 39.8 µM (inactive) and 27.1 µM (inactive)
